{
  "source": "patent US20050019354A1",
  "about": "“Topical benfotiamine treatments” (priority 2003, published 2005)",
  "origin": "cited, not measured here",
  "key": {"transketolase": {"biological_target": "T1, transketolase (Homo sapiens, UniProt P29401)", "T1 sequence (P29401 1-623)": "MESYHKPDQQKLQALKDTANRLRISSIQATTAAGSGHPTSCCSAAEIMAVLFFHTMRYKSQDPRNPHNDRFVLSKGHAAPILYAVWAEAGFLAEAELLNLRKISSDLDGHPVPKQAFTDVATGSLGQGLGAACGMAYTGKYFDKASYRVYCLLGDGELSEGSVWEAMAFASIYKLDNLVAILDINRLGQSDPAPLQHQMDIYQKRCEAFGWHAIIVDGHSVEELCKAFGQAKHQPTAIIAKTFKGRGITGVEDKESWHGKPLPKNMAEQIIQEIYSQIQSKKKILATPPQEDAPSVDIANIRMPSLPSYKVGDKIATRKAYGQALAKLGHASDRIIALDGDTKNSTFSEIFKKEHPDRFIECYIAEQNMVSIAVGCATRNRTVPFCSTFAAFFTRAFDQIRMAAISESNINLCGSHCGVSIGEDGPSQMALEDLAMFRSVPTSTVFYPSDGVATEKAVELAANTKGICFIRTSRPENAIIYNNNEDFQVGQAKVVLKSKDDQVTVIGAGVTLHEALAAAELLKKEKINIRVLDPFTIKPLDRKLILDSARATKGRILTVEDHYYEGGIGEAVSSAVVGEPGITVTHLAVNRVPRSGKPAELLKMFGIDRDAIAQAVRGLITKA"}, "[1]": {"test_system": "retinopathy in diabetic rats"}},
  "data": [
    {"compound": "C/C(=C(\\CCOP(=O)(O)O)SC(=O)c1ccccc1)N(C=O)Cc1cnc(C)nc1N", "note": "[Benfotiamine, S-Benzoylthiamine-O-Monophosphate]", "values": [
      {"measurement": "increase of transketolase activity", "setting": "transketolase", "result": 300, "unit": "%"},
      {"measurement": "effect on retinopathy", "setting": "[1]", "result": "prevented retinopathy"}
    ]}
  ]
}
